Biological target: T1, Kv1.5m channels (Homo sapiens, UniProt P22460, P513D/R400Q/R403Q/R409Q)
T1 construct: The coding region of the human gene for Kv1.5 was subcloned into pYC2 (Invitrogen) as an approximately 2 kb HindIII-NotI fragment; expressed in transfected cells; host or cells: Saccharomyces cerevisiae trk1 trk2 strain WΔ3, plasmid pYC2 (GAL1 promoter) or a PGK promoter vector
Experiment: Liquid culture growth assay of trk1 trk2 yeast (WΔ3) expressing Kv1.5m in low potassium media
Type: cell-based
Conditions: for OD600 (Batch A) / OD600 (Batch B): QPD WΔ3 transformants, liquid culture; for Block of growth of the trk1 trk2 strain expressing Kv1.5m on low potassium: low potassium media
Excerpt: Expression of the cloned inserts is under the control of either the constitutively active PGK promoter or the inducible GAL1 promoter. The latter requires growth in/on media containing galactose as sole carbon source. The screening method involves adding the compound to be screened to the growth media of trk1 trk2 yeast expressing the modified potassium channel and determining whether the yeast's growth is inhibited. The tested compound may be incorporated in liquid or solid growth media or added ectopically to solid growth media.
Our yeast strain, when expressing the mutant Kv1.5 channel, is capable of consistent growth on as little as 0.5 mM potassium. Very few pseudorevertants are capable of growth at this potassium concentration; the vast majority of liquid cultures of the parent strain show absolutely no growth even after more than 24 hours culture. When expressing the mutant Kv1.5 channel, growth is robust and can be blocked by known Kv1.5 channel blockers.
Detailed Description of the Methods Required for a Liquid Culture Media Assay of Kv1.5:
Low salt media was made according to Wickerham, L. J. (1951) (Taxonomy of Yeasts. United States Department of Agriculture Technical Bulletin No. 1029), except that the final potassium phosphate concentration was 0.5 mM.
1. Streak out WΔ3 and Kv1.5m transformed WΔ3 (“Kv1.5m”) culture from frozen stock onto YPD+100 mM K+ and YNB+100 mM K+, ura-agar media plates, respectively, for fresh colonies.
2. The day before doing the drug assay, use the fresh colonies to grow overnight cultures of WΔ3 in liquid YPD+100 mM K+ media, and grow “Kv1.5 m” in liquid YNB+100 mM K+, ura-media.
3. Collect the overnight yeast cells and wash them in sterile distilled water. Resuspend WΔ3 cells in the same volume of LS+100 mM K++ uracil media, and resuspend “Kv1.5 m” cells in the same volume of LS+0.5 mM K+, ura-media. These are the seed cultures for the drug assay.
4. In Falcon 2059 tubes, prepare various concentrations of drugs in LS+0.5 mM K+, ura-media or LS+100 mM K++ uracil media, and also set up solvent controls for each drug concentrations used. Here is an example:
Drug X stock solution (10 mM) is dissoved in 0.5% Tween-20. Final concentrations that we test are 1 mM, 0.1 mM, and 0.01 mM.
Then 250 micro liter of the seed culture of “Kv1.5m” from step 3 is inoculated into each tube.
5. Measure the starting OD600 by taking out 0.1 ml of the sample from each tube and diluting […] for measuring. Grow cultures at […] shaker at 300 rpm.
6. Get 0.1 ml of samples from each tube and measure their OD600 at 2 hr, 4 hr, 6 hr, 8 hr, and 24 hr.

T1 sequence (P22460 whole entry R400Q/R403Q/R409Q/P513D, the tested form may be a part): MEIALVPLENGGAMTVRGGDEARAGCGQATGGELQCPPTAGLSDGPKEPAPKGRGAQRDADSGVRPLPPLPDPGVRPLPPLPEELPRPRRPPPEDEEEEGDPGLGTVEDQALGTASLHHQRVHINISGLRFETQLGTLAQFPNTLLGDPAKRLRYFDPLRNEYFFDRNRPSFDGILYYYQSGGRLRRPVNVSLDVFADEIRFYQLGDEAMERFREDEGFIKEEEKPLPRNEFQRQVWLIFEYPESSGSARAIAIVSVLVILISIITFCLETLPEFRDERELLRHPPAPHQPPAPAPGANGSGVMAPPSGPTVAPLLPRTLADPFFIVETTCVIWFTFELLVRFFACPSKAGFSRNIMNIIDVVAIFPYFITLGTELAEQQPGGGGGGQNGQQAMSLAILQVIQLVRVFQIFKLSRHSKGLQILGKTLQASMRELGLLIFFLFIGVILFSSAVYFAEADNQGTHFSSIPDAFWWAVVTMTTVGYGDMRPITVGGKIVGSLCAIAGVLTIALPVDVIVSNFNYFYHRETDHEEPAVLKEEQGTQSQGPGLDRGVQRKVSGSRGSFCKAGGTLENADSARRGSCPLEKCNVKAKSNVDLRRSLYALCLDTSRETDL

Nc1ccncc1 [Compound 4-AP, 4-aminopyridine]
inhibition at 1000 µM (1 mM 4-AP, both batches, read-out: reduction at OD600 (inhibition of yeast growth)): 50% | OD600 (Batch A) (LS + 0.5 mM K+ + 0.1 mM 4-AP): 2.55 | OD600 (Batch B) (LS + 0.5 mM K+ + 0.1 mM 4-AP): 2.5 | OD600 (Batch A) (LS + 0.5 mM K+ + 1 mM 4-AP): 1.11 | OD600 (Batch B) (LS + 0.5 mM K+ + 1 mM 4-AP): 1.11 | Block of growth of the trk1 trk2 strain expressing Kv1.5m on low potassium: can block the Kv1.5m channels | Block of growth of the trk1 trk2 strain expressing Kv1.5m on low potassium (listed as 4-aminopyridine): could be blocked

From US20060167226A1, “Mutations of voltage-gated ion channnels that allow them to express a voltage-independent phenotype and an improved method to use the same” (Cardiome Pharma Corp., priority 2002, published 2006)
